Measurements reported in ChEMBL document CHEMBL1144216, “Suppression of cytokine production in lipopolysaccharide-stimulated mouse macrophages by novel cationic glucosamine derivative involves down-regulation of NF-kappaB and MAPK expressions” (2008).
Active and inactive are the calls of the source. The calls are words filed in the database; no cut-off is given here.

Assays:
RAW264.7 [1] = assay: Inhibition of LPS-stimulated TNFalpha production in mouse RAW264.7 cells at 50 ug/ml treated 1 hr before LPS challenge after 24 hrs by ELISA; assay type: functional
RAW264.7 [2] = assay: Inhibition of LPS-stimulated IL1-beta production in mouse RAW264.7 cells assessed as IL1-beta level at 50 ug/ml treated 1 hr before LPS challenge after 24 hrs by ELISA; assay type: functional
RAW264.7 [3] = assay: Inhibition of LPS-stimulated IL6 production in mouse RAW264.7 cells at 50 ug/ml treated 1 hr before LPS challenge after 24 hrs by ELISA; assay type: functional, cell-based
RAW264.7 [4] = assay: Inhibition of LPS-stimulated PGE2 production in mouse RAW264.7 cells at 50 ug/ml treated 1 hr before LPS challenge after 24 hrs by ELISA; assay type: functional
RAW264.7 [5] = assay: Inhibition of LPS-induced NF-kappaB promoter activity in mouse RAW264.7 cells by luciferase reporter assay; assay type: functional, cell-based
RAW264.7 [6] = assay: Reduction of LPS-induced NF-kappaB translocation in mouse RAW264.7 cells assessed as NF-kappaB p65 protein expression level at 40 ug/mL by Western blotting; assay type: functional, cell-based
RAW264.7 [7] = assay: Effect on level of NIK in mouse RAW264.7 cells by Western blotting; assay type: functional, cell-based
RAW264.7 [8] = assay: Inhibition of IKK protein expression in mouse RAW264.7 cells by Western blotting; assay type: functional, cell-based
RAW264.7 [9] = assay: Increase in IkappaB protein expression in mouse RAW264.7 cells by Western blotting relative to control; assay type: functional, cell-based
RAW264.7 [10] = assay: Inhibition of LPS-stimulated JNK level in mouse RAW264.7 cells by Western blotting; assay type: functional, cell-based
RAW264.7 [11] = assay: Inhibition of LPS-stimulated p38MAPK expression in mouse RAW264.7 cells by Western blotting; assay type: functional, cell-based
RAW264.7 [12] = assay: Inhibition of LPS-stimulated ERK expression in mouse RAW264.7 cells by Western blotting; assay type: functional, cell-based
RAW264.7 [13] = assay: Inhibition of LPS-stimulated TNFalpha production in mouse RAW264.7 cells at 60 ug/mL by Western blot analysis; assay type: functional, cell-based
RAW264.7 [14] = assay: Inhibition of LPS-stimulated IL1-beta production in mouse RAW264.7 cells at 60 ug/mL by Western blot analysis; assay type: functional, cell-based
RAW264.7 [15] = assay: Inhibition of LPS-stimulated IL6 production in mouse RAW264.7 cells at 60 ug/mL by Western blot analysis; assay type: functional, cell-based
RAW264.7 [16] = assay: Reduction of LPS-induced NF-kappaB translocation in mouse RAW264.7 cells assessed as NF-kappaB p65 protein expression level at 60 ug/mL by Western blotting; assay type: functional, cell-based
RAW264.7 [17] = assay: Inhibition of LPS-stimulated TNFalpha production in mouse RAW264.7 cells treated 1 hr before LPS challenge after 24 hrs by ELISA; assay type: functional, cell-based
RAW264.7 [18] = assay: Inhibition of LPS-stimulated IL1-beta production in mouse RAW264.7 cells treated 1 hr before LPS challenge after 24 hrs by ELISA; assay type: functional, cell-based
RAW264.7 [19] = assay: Inhibition of LPS-stimulated PGE2 production in mouse RAW264.7 cells treated 1 hr before LPS challenge after 24 hrs by ELISA; assay type: functional, cell-based
RAW264.7 [20] = assay: Inhibition of LPS-stimulated IL6 production in mouse RAW264.7 cells treated 1 hr before LPS challenge after 24 hrs by ELISA; assay type: functional, cell-based

Row | SMILES | inhibition at 50 µg/mL (RAW264.7 [1]) [%] | Activity (RAW264.7 [2]) [pg/mL] | Activity (RAW264.7 [3]) | inhibition at 50 µg/mL (RAW264.7 [4]) [%] | Activity (RAW264.7 [5]) | Activity (RAW264.7 [6]) | Activity (RAW264.7 [7]) | Activity (RAW264.7 [8]) | Activity (RAW264.7 [9]) | Activity (RAW264.7 [10]) | Activity (RAW264.7 [11]) | Activity (RAW264.7 [12]) | Activity (RAW264.7 [13]) | Activity (RAW264.7 [14]) | Activity (RAW264.7 [15]) | Activity (RAW264.7 [16]) | Activity (RAW264.7 [17]) | Activity (RAW264.7 [18]) | Activity (RAW264.7 [19]) | Activity (RAW264.7 [20])
1 | C[N+](C)(C)CC(O)CN[C@@H]1[C@@H](O)[C@H](O)[C@@H](CO)O[C@H]1O.[Cl-] (stereo not given in full) | 45 | 100 | Active | 50 | Dose-dependent effect | Active | inactive | Active | Active | Dose-dependent effect | Dose-dependent effect | inactive | Active | Active | Active | Active | – | – | – | –
2 | N[C@H]1C(O)O[C@H](CO)[C@@H](O)[C@@H]1O (stereo not given in full) | – | – | – | – | – | – | – | – | – | – | – | – | – | – | – | – | Dose-dependent effect | Dose-dependent effect | Dose-dependent effect | Dose-dependent effect
